Measurements reported in patent publication US20220313626A1, “SMALL MOLECULE INHIBITORS FOR TREATING CANCER IN A SUBJECT HAVING TUMORS WITH HIGH INTERSTITIAL PRESSURE” (GUANGZHOU MAXINOVEL PHARMACEUTICALS CO., LTD., priority 2019, published 2022).

Test system: MC-38-hPD-L1 tumor cells
Test: Anti-tumor efficacy in MC-38-hPD-L1 models
Assay type: in vivo
Conditions: for TGI / Tumor Volume: MC-38-hPD-L1, C57BL/6-hPD-1 mice, BID, 19 days
Experimental: Materials required for the experiment: Antibody: PD-L1 antibody Durvalumab, Product specifications: 120 mg/2.4 mL(50 mg/mL), Lot No.: 041E17C, Manufacture: AstraZeneca, purchased from Hongkong Mingchuang Medical Limited, storage at 2-8° C. Experimental animal: 120 C57BL/6-hPD-1 mice, female, 6˜8 weeks old, 18˜21 g, purchased from Jiangsu Gem Pharmatech Co. Ltd. Formulation material: castor oil (Cremophor RH40), CAS No.: 61788-85-0, Lot No.: 29761847G0, purchased from Shanghai Xietai Chemical Co. Ltd.; β-cyclodextrin (SBE-β-CD), CAS No.: 128446-35-5, Lot No.: R1804474, purchased from Shanghai Shaoyuan Chemical Co. Ltd.; DMEM culture medium, CAS No.: 11995-065, Lot No.: 2025378, purchased from Gibco Co. Ltd.; PBS, Art. No.: SH30256.01, Lot No.: AB10141338, purchased from HyClone Co. Ltd.; Fetal bovine serum: CAS No.: 10099-141, Lot No.: 1966174C, purchased from Gibco Co. Ltd.; hygromycinB: CAS No.: 10687010, Lot No.: HY069-L12 purchased from Invitrogen.
Cell culture: The MC-38 tumor cells (NCI) were maintained in vitro as a monolayer culture in DMEM medium supplemented with 10% heat inactivated fetal bovine serum, 100 μg/mL hygromycinB at 37° C. in an atmosphere of 5% CO2 in air. The tumor cells were routinely subcultured three times weekly by trypsin-EDTA treatment. The cells growing to a confluency around 70%-80% were harvested and counted for tumor inoculation.
Tumor cell inoculation and group administration: The 100 uL cell suspension containing 1×10^6 MC-38-hPD-L1 tumor cells (cells suspended in base DMEM medium) was inoculated into right dorsal subcutaneous area in mice. 6 days after inoculation, 60 tumor-bearing mice with transplanted tumors ranging from 31.49 mm^3 to 110.26 mm^3 were selected, stratified randomization was used to group and start the administration on the day of grouping.
Preparation of test substances: Preparation of formulation: 800 mL of sterile water was added into the volumetric flask with magnetic stirring to have a vortex. 100 g of castor oil (Cremophor RH40) was added with a spoon slowly into the vortex and the solution was kept stirring. 200 g of β-cyclodextrin (SBE-β-CD) was added while the solution was kept stirring until the solution was clear, and the total volume was set to 1000 mL, which contained 10% (w/v) Cremophor RH40+20% (w/v) an aqueous solution of SBE-β-CD.
Preparation of Compound Suspension: 150.92 mg compound was weighed and 12.5 mL 10% (w/v) Cremophor RH40+20% (w/v) SBE-β-CD aqueous solution were added. The suspension solution with a concentration of 12.0 mg/mL was obtained by vortex for 2 minutes and ultrasound for 30 minutes. 5.0 mL of the compound suspension solution with concentration of 12.0 mg/mL was pipetted and 5.0 mL aqueous formulation solution was added. The suspension solution with a concentration of 6.0 mg/mL was obtained by vortex for 1 minute and sonicated by ultrasound for 5 minutes. 2.0 mL of the compound suspension solution with concentration of 6.0 mg/mL was pipetted and […] was added. The suspension solution with a concentration of 3.0 mg/mL was obtained by vortex for 1 minute and sonicated by ultrasound for 5 minutes. Compound suspension solution was prepared once a day.
Preparation of hPD-L1 antibody: 0.12 mL PD-L1 antibody Durvalumab (50 mg/mL) original solution was pipetted and divided into […] in 5 mL sterile centrifugal tube, which were packed with each containing 6.0 mg. They were stored in refrigerator at 4° C. Before administration, a raw solution containing 0.12 mL and 50 mg/mL was taken, and 2.88 mL 0.9% sodium chloride solution was added to make the solution thoroughly mixed. 3 mL Duvalumab solution with the concentration 2 mg/mL was obtained.
Procedure: The mice in the vehicle group were weighed and recorded in the electronic balance according to their numbers. […]

**Q.** How did the “tolerability (adverse reactions)” value (C57BL/6-hPD-1 mice, PO, BID up to 120 mg/kg) turn out when Cc1c(/C=C/c2cc(CN[C@@](C)(CO)C(=O)O)ccc2C(F)(F)F)cccc1-c1ccccc1 [Compound] was run?
**A.** The value was “well tolerated”.

**Q.** And the TGI (30 mg/kg, PO)?
**A.** Its TGI is 24.95%.

**Q.** What about the “Tumor Volume” value (30 mg/kg, PO) of the same compound?
**A.** Its value is 459.82 ± 58.24 mm^3.

**Q.** And the TGI (60 mg/kg, PO)?
**A.** Its TGI is 29.06%.

**Q.** What about the “Tumor Volume” value (60 mg/kg, PO) of the same compound?
**A.** Its value is 439.04 ± 51.23 mm^3.

**Q.** What about the TGI (120 mg/kg, PO) of the same compound?
**A.** The TGI was 51.21%.

**Q.** What about the “Tumor Volume” value (120 mg/kg, PO) of the same compound?
**A.** Its value is 325.23 ± 38.59 mm^3.

**Q.** What about the “growth of subcutaneous MC-38-hPD-L1 tumors in mice” value (MC-38-hPD-L1 model, C57BL/6-hPD-1 mice) of the same compound?
**A.** The value was “significantly inhibit the growth”.
